4 compounds from ChEMBL document CHEMBL1201862, “PubChem BioAssay data set” (2004) can be followed below.

Experiment [1] can be described thus: miR-122 activators in hepatoma reporter cells, dose response, cell-based, Huh7 psiCHECK-miR122, Renilla luciferase, cherry-picked (AID 651956).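 Also: huh7 hepatoma cells stably carrying a psiCHECK-2 miR-122 sensor plasmid; renilla luciferase signal reporting endogenous miR-122 activity after 48 h compound exposure.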 It is filed as functional.
Experiment [2] in a line: Fluorescence-based cell-based high throughput dose response assay for inhibitors of the interaction of nucleotide-binding oligomerization domain containing 2 (NOD2) and the receptor-interacting serine-threonine kinase 2 (RIPK2). It is filed as functional. To be noted: Homo sapiens.
A short description of experiment [3]: HEK293T cytotoxicity, dose response, cytotoxicity control for miR-122 modulator project, cell-based, activator set, cherry-pick (AID 720690).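 Also: HEK293T human cells scored for general mammalian cytotoxicity.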 The class given is functional.
The target in another experiment is T1, Aspartyl aminopeptidase (Plasmodium falciparum 3D7, UniProt Q8I2J3).
T1 sequence (Q8I2J3 whole entry): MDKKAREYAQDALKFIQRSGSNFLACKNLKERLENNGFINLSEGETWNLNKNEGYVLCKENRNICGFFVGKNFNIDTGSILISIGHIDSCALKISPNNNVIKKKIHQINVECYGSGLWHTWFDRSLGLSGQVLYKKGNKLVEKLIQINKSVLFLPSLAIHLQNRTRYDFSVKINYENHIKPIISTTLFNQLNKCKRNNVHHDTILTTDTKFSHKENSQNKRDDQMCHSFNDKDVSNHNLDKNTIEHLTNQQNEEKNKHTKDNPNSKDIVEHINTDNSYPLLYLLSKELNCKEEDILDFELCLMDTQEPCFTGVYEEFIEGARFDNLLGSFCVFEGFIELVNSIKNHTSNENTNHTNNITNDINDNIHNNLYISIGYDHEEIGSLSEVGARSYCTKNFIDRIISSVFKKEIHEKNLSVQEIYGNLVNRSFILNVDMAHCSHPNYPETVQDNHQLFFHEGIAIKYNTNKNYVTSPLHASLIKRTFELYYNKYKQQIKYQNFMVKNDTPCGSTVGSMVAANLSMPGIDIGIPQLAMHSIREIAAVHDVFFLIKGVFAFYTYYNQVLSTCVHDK
As to the kind of experiment: Counterscreen for inhibitors of M1 and M17 aminopeptidases: QFRET-based biochemical high throughput dose response assay for inhibitors of the Plasmodium falciparum M18 Aspartyl Aminopeptidase (PFM18AAP). [Related PubChem assays: 1619 (Screening assay (M17LAP inhibitors).), 1445 (Screening assay (M1AAP inhibitors).)]. In general terms: The purpose of a counterscreen is to sort out artefacts and off-target activity.

For experiment [4], the target named is Glyceraldehyde-3-phosphate dehydrogenase (Homo sapiens, UniProt P04406).
The next experiment concerns the target T2, Leucine aminopeptidase (Plasmodium falciparum 3D7, UniProt Q8IL11).
T2 sequence (Q8IL11 whole entry): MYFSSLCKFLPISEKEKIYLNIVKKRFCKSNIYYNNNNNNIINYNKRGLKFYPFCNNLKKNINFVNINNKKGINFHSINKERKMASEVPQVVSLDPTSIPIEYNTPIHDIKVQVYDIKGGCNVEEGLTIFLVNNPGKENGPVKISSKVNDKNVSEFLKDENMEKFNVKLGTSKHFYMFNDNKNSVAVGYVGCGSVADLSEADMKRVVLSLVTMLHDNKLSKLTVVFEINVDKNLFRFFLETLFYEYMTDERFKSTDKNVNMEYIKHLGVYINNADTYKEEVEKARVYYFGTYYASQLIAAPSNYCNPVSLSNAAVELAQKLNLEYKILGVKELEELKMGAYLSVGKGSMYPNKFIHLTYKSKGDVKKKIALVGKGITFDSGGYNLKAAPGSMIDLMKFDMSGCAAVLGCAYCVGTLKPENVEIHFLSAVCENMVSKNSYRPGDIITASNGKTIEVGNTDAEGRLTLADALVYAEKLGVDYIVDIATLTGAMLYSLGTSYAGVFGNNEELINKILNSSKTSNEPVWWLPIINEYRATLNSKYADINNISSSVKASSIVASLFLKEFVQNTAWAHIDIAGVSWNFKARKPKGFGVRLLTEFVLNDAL
As to the kind of experiment: P. falciparum M17LAP inhibitors, primary screen, biochemical, fluorogenic H-Leu-NHMec substrate, 1536-well (AID 1619). The class given is functional.

In experiment [5] the target is Voltage-gated N-type calcium channel alpha-1B subunit/Amyloid beta A4 precursor protein-binding family A member 1 (Homo sapiens, UniProt Q00975+Q02410). It is filed as protein assay.
Experiment [6] deals with Apoptotic protease-activating factor 1 (Homo sapiens, UniProt O14727). The class given is functional.
Experiment [7] deals with T3, Sentrin-specific protease 8 (Homo sapiens, UniProt Q96LD8).
T3 sequence (Q96LD8 whole entry): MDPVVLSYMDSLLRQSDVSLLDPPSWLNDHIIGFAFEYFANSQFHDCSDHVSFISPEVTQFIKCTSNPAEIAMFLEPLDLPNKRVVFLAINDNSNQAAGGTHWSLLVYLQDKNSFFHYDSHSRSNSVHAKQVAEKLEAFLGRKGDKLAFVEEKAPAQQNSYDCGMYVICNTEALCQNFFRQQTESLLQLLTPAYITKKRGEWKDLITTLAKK
It is filed as functional.

A further experiment has as its target SUMO-activating enzyme (Homo sapiens, UniProt Q9UBT2). Put plainly: SUMOylation inhibitor hit validation, confirmation, SUMOylation inhibitor project, biochemical, AlphaScreen (AID 2018). It is filed as functional. (In general: In Alpha technology, singlet oxygen from a donor bead excites a nearby acceptor bead.)
Experiment [8] concerns the target T4, Long-chain-fatty-acid--AMP ligase FadD28 (Mycobacterium tuberculosis, UniProt P9WQ59).
T4 sequence (P9WQ59 whole entry): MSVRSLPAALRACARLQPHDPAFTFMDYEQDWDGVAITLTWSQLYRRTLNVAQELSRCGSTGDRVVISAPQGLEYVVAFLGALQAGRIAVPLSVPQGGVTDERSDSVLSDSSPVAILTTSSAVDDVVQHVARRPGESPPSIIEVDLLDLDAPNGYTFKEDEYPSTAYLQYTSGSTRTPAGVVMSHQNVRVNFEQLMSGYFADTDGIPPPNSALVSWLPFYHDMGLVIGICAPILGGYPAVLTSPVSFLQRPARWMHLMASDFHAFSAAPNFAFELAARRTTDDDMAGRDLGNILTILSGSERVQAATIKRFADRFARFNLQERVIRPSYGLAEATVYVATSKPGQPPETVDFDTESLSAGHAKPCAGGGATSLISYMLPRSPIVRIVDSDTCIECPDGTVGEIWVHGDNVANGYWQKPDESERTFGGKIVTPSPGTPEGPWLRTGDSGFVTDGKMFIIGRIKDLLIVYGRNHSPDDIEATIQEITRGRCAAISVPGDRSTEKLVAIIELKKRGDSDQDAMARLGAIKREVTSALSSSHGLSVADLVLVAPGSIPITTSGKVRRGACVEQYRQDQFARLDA
As to the kind of experiment: Fluorescence polarization aasay to screen for inhibitors that compete for the binding of FadD28 to a bisubstrate Measured in Biochemical System Using Plate Reader - 2147-01_Inhibitor_Dose_CherryPick_Activity. The class given is functional, Mycobacterium tuberculosis H37Rv. A general note: Fluorescence polarisation rises when a labelled molecule tumbles more slowly, as on binding a larger partner.

A further experiment deals with Albumin (Bos taurus, UniProt P02769). Put plainly: Counterscreen for inhibitors of T-cell receptor (TCR)-CD3 interaction: Fluorescence-based biochemical high throughput dose response assay to identify inhibitors of T-cell receptor (TCR)-CD3 interaction using a TAMRA-labeled BSA probe. It is filed as functional.

Molecules are shown by their SMILES. Calls of active or inactive are those of the source.

Usually AC50 stands for the concentration giving half of the maximal activity seen. As usually defined, the IC50 is the point on the concentration scale where inhibition reaches its midpoint.

Glyceraldehyde-3-phosphate dehydrogenase, sequence (P04406 whole entry): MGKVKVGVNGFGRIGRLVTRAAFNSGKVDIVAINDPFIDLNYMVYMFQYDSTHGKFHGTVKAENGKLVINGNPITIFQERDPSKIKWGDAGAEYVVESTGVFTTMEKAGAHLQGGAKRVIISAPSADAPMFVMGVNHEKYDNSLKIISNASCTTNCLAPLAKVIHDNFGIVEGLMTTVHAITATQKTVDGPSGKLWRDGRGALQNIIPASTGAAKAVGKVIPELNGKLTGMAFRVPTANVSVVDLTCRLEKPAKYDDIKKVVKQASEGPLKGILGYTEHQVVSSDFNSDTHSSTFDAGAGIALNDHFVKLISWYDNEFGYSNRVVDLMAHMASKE
SUMO-activating enzyme, sequence (Q9UBE0 whole entry): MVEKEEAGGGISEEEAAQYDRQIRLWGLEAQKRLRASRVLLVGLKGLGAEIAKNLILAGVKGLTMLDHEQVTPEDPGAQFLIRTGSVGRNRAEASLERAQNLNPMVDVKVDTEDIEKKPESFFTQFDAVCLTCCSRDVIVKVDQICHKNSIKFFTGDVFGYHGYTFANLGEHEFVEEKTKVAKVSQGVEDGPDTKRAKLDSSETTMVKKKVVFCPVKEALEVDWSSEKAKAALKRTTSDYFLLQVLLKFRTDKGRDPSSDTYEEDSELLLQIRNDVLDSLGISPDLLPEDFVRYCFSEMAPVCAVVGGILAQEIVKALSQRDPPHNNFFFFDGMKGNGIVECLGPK
SUMO-activating enzyme, sequence (Q9UBT2 whole entry): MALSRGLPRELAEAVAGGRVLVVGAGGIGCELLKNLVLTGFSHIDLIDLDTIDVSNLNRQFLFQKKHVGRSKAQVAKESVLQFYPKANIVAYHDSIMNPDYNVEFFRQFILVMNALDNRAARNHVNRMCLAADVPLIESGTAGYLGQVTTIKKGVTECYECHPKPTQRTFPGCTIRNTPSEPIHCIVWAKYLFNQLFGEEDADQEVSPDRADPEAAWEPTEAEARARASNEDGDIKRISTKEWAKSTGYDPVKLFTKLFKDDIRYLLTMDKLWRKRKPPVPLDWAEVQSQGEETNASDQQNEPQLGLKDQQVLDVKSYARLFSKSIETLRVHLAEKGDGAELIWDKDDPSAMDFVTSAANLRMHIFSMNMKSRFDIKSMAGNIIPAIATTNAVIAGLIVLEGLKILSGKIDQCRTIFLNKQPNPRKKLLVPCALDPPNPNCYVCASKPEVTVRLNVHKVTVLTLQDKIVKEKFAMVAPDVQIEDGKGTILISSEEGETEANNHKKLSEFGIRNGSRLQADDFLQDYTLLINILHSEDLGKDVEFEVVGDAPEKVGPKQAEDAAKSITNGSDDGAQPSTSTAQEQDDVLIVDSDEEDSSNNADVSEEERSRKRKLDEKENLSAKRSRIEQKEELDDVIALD
Apoptotic protease-activating factor 1, sequence (O14727 whole entry): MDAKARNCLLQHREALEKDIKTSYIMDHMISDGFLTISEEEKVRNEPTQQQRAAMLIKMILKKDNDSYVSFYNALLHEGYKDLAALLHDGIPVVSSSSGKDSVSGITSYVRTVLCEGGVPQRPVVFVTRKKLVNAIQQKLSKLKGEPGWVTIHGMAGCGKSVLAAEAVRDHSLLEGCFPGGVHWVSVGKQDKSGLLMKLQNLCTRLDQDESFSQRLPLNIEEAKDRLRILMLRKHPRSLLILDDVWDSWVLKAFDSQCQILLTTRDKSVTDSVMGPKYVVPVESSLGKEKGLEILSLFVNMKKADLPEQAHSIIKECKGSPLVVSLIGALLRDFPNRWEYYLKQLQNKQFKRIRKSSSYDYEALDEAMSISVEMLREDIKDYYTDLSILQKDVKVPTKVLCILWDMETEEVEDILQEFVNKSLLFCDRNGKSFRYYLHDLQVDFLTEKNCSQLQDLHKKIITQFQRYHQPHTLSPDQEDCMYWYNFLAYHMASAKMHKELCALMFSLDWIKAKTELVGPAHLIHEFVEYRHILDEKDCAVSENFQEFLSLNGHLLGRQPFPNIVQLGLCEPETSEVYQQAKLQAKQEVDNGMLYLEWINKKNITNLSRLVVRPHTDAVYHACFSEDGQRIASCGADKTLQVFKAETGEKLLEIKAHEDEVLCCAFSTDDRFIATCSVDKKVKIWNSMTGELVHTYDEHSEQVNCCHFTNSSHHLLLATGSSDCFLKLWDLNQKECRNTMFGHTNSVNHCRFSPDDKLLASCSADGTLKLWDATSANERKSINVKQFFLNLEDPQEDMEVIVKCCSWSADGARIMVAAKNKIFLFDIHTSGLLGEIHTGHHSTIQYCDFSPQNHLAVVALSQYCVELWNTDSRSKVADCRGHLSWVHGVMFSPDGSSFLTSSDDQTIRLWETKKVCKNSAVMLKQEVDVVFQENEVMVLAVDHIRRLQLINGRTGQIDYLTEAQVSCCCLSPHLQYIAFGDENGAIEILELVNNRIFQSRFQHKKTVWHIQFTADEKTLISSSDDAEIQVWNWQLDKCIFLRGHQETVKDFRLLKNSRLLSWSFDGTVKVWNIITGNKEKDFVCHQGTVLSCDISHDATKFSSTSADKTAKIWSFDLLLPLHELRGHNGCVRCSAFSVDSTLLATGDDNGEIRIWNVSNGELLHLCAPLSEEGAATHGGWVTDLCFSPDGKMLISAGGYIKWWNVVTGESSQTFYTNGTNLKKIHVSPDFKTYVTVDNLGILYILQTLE
Albumin, sequence (P02769 whole entry): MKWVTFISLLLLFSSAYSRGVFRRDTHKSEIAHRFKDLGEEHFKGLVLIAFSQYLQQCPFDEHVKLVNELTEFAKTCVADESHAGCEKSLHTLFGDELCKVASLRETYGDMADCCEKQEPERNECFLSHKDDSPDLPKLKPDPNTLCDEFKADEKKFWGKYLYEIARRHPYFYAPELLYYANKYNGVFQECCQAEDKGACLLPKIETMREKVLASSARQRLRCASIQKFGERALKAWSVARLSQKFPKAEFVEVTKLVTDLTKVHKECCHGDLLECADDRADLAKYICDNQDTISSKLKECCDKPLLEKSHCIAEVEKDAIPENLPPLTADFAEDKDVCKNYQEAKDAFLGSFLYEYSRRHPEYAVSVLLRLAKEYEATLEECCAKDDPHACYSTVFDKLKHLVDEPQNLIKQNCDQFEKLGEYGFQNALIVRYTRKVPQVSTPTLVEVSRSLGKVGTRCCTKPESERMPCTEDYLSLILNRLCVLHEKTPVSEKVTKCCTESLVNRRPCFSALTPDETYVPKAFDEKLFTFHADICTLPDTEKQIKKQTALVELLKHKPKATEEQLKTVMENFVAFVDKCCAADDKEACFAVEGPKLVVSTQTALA

As to `COc1ccc(CC2=CC(=O)c3ccccc3C2=O)cc1`, the AC50 was 20.7 µM (active) in experiment [1] and 5.27 µM (active) in experiment [3]. Also, the IC50 in [2] was 4.12 µM (active).

Turning to `Oc1cc(-c2cccc3ccccc23)[nH]n1`, the IC50 against Aspartyl aminopeptidase is > 73.5 µM (not active); in [4], > 100 µM (not active); at Leucine aminopeptidase, 2.9 µM (active).

Regarding `c1coc(-c2nnc(-c3ccco3)nn2)c1`, the IC50 in experiment [5] is 1.66 µM (active); in [6], 15.8 µM (active); in experiment [7] it was 9.28 µM (active); on SUMO-activating enzyme, 0.99 µM (active).

With `Cn1c(O)c(/C=N/NC(=O)c2cc3ccccc3cc2O)c2ccccc21`, the AC50 in experiment [8] was > 100 µM (inactive). The IC50 on Albumin is > 94.1 µM (inactive).
